The test system of this experiment is SARS-CoV-2. As to the kind of experiment: Antiviral activity against SARS-CoV-2 pseudotyped lentivirus infected in HEK293 cells overexpressing EGFP-fused hACE2 coexpressing mCherry assessed as reduction in virus entry incubated for 40 mins by immunocytochemistry assay. It is filed as functional, organism-based. As to conditions: Severe acute respiratory syndrome coronavirus 2, HEK293, 40 min.

With `C=C[C@@](C)(/C=C/c1ccc(O)cc1)CCC=C(C)C` [BAKUCHIOL], the EC50 turned out to be 110 µM. In the case of `CC(C)=CCc1c(O)ccc(C(=O)/C=C/c2ccc(O)cc2)c1O` [ISOBAVACHALCONE] it was 51.5 µM.

The values are drawn from ChEMBL document CHEMBL5512692, “Colloidal Aggregation Confounds Cell-Based Covid-19 Antiviral Screens” (J Med Chem, 2024).
